Source: patent US20090143454A1, “Pyrazoline Derivatives and Their Use As Pesticides” (BAYER CROPSCIENCE AG, priority 2001, published 2009)

Legend:
Format in all cases: in vivo
[1] = tested on: Diabrotica balteata larvae; assay: Diabrotica test (larvae in soil); conditions: 20 ppm (mg/l soil), Diabrotica balteata larvae on maize in treated soil
[2] = tested on: caterpillars of the army worm (Spodoptera exigua); assay: Spodoptera exigua test; conditions: 500 ppm, cabbage leaves dipped
Method: To produce a suitable preparation of active compound, 1 part by weight of active compound is mixed with the stated amounts of solvent and emulsifier, and the concentrate is diluted with emulsifier-containing water to the desired concentration.
Cabbage leaves (Brassica oleracea) are treated by being dipped into the preparation of active compound of the desired concentration and are populated with caterpillars of the army worm (Spodoptera exigua) while the leaves are still moist.
After the desired period of time, the kill in % is determined. 100% means that all caterpillars have been killed; 0% means that none of the caterpillars have been killed.

[3] = tested on: Boophilus microplus resistent/SP-resistent Parkhurst-strain, adult sucked female; assay: Test with Boophilus microplus resistent/SP-resistent Parkhurst-strain; conditions: 100 μg animal, injected into the abdomen; oviposition of fertile eggs after 7 days
Method: […] More dilute concentrations are prepared by dilution with the same solvent.
The test is carried out in 5-fold determination. […] The control of activity is made after 7 days for oviposition of fertile eggs. Eggs whose fertility cannot be seen from the outside are stored in glass tubes in a climate chamber until the larvae have been hatched. An activity of 100% means, that no tick has hatched fertile eggs.

[4] = tested on: adult Musca domestica, strain Reichswald (OP, SP, carbamate-resistent); assay: Test with flies (Musca domestica); conditions: 100 ppm; treated filter paper; time not given
Method: 20 mg of active compound are dissolved in 1 ml of dimethyl sulphoxide. More dilute concentrations are prepared by dilution with distilled water.
2 ml of the preparation of active compound are pipetted onto a filter paper dish (Ø 9.5 cm), which are placed in a Petri dish of corresponding diameter. After drying of the filter dishes 25 test animals are transferred in the Petri dishes and covered.
After 1, 3, 5, 24 and 48 hours (or after the times given in the tables below) the activity of the preparation of active compound is determined. 100% means, that all flies have been killed, 0% means, that none of the flies have been killed.

N#Cc1cnn(C2CN(C(=O)Nc3ccc(SC(F)(F)F)cc3)N=C2c2ccc(Cl)cc2)c1 (stereo not shown) [drawing 37]
Kill rate in % after 10 d [1]: 100%

N#Cc1cnn(C2CN(C(=O)Nc3ccc(OC(F)(F)F)cc3)N=C2c2ccc(Cl)cc2)c1 (stereo not shown) [drawing 58]
Kill rate in % after 7 d [2]: 100%

N#Cc1cnn(C2CN(C(=O)Nc3ccc(C(F)(F)F)cc3)N=C2c2ccc(Cl)cc2)c1 (stereo not shown) [drawing 59]
Kill rate in % after 7 d [2]: 100%

N#Cc1cnn(C2CN(C(=O)Nc3ccc(SC(F)(F)F)cc3)N=C2c2ccc(Cl)cc2)c1 (stereo not shown) [drawing 60]
Kill rate in % after 7 d [2]: 100%

N#Cc1cnn(C2CN(C(=O)Nc3ccc(S(=O)(=O)C(F)(F)F)cc3)N=C2c2ccc(Br)cc2)c1 (stereo not shown) [drawing 91]
activity/kill rate in % [3]: 100%

N#CCN(C(=O)N1CC(n2cc(C#N)cn2)C(c2ccc(Cl)cc2)=N1)c1ccc(OC(F)(F)F)cc1 (stereo not shown) [drawing 92]
activity/kill rate in % [3]: 100%

N#Cc1cnn(C2CN(C(=O)Nc3ccc(OC(F)(F)F)cc3)N=C2c2ccc(Cl)cc2)c1 (stereo not shown) [drawing 93]
activity/kill rate in % [4]: 30%

N#Cc1cnn(C2CN(C(=O)Nc3ccc(C(F)(F)F)cc3)N=C2c2ccc(Cl)cc2)c1 (stereo not shown) [drawing 94]
activity/kill rate in % [4]: 30%

N#Cc1cnn(C2CN(C(=O)Nc3ccc(OC(F)(F)F)cc3)N=C2c2ccc(Br)cc2)c1 (stereo not shown) [drawing 95]
activity/kill rate in % [4]: 75%

N#CCN(C(=O)N1CC(n2cc(C#N)cn2)C(c2ccc(Cl)cc2)=N1)c1ccc(OC(F)(F)F)cc1 (stereo not shown) [drawing 96]
activity/kill rate in % [4]: 60%
